Tests used:
[1] = test system: immobility in tail suspension test; assay: Tail suspension test (TST); assay type: in vivo, mice
Description: In the RFS study, mice were subjected to 4 daily 15 min swims as described above and were injected i.p. with either vehicle or dp6FNE (3 mg/kg) 15 min prior to the 5th swim. In the TST study, animals were injected similarly before a 6 min test. […] The animals were anesthetized and perfused for immuno-histochemistry 70 min after the start of the swim or tail suspension. Brains were processed as described previously for double-label immunofluorescent Fos/tyrosine hydroxylase staining of all sections through the LC and for single-label Fos staining through the full PVH (Stone et al., Brain Res (2009) 1291: 21-31).
To determine if dp6FNE was active in a more traditional test of antidepressant activity, it was given as above 15 min prior to a tail suspension test.
The first test involves an acute stress-induced model of depression (Steru, et al., Psychopharmacology 1985; 85: 367-370) whereas the second, a more prolonged, chronic depression that is more akin to chronic human depression (Stone, et al., Pharmacol Biochem Behav 2008; 91: 190-195).

[2] = test system: endotoxin-induced inhibition of the female urine sniffing test (FUST); assay: Endotoxin (LPS)-induced anhedonia, female urine sniffing test (FUST); assay type: in vivo, mice
Description: To determine if dp6FNE would also be active in an anhedonia-based model of depression, the compound was tested for its ability to reverse an endotoxin-induced inhibition of the female urine sniffing test (FUST), a non-nutritive hedonic behavior, whose impairment by stress was recently validated as a model of depression in this species (Malkesman et al., Biol Psychiatry (2010) 67: 864-871) A non-nutritive rewarding behavior was used because dp6FNE, like most other acutely administered antidepressants, has initial anorexic effects that inhibit the consumption of sweet solutions (Currie et al., Brain Res (1998) 800: 62-68). […] The repeated forced swim (RFS) model could not be used for this test because it is not a severe enough stress to reliably produce anhedonia in this species (Stone et al., Pharmacol Biochem Behav (2008b) 91: 190-195).
Male mice were trained to sniff estrous urine (verified by vaginal smears) presented on cotton swabs in the home cage over 3 d and were matched on sniffing duration (proximity to the swab in a 3 min test) into control and depression groups. These groups were administered i.p. control solution (H2O) or lipopolysaccharide (LPS), 400 μg/kg, respectively, and were left undisturbed for 24 h, which is necessary for the initial sickness behavior, but not the anhedonia, to subside (Frenois et al., Psychoneuroendocrinology (2007) 32: 516-531).

CC(C)(C)C(=O)Oc1cc(F)c(C(O)CN)cc1OC(=O)C(C)(C)C (stereo not shown) [dp6FNE, dipivalyl-6-fluoronorepinephrine]
immobility in tail suspension test ([1]; 3 mg/kg i.p. with prazosin 0.2 mg/kg, 15 min prior to test): significant reduction of immobility | antidepressant action in the tail suspension test ([1]; i.p. at doses of 1, 3 and 10 mg/kg, given along with phentolamine 5 mg/kg i.p.): significant antidepressant action | change of time sniffing, Con vs LPS ([2]; dp6FNE (1 mg/kg) i.p. with prazosin 0.2 mg/kg, 15 min before test, 24 h after LPS 400 μg/kg): +4.6±1.4% | effect on the FUST in the absence of endotoxin ([2]; dp6FNE i.p. with prazosin 0.2 mg/kg, control (H2O) animals): did not significantly affect the FUST

Source: US9265774B2, “Methods, compounds and pharmaceutical compositions for treating anxiety and mood disorders” (New York University, priority 2011, dated 2016)
